Laboratory results reported in patent US9694016B2 (Novartis AG, priority 2013, dated 2017).

What follows are molecules tested against b-Raf (V600E) (Homo sapiens (Human), UniProt P15056, V600E). Details: read-out: b-Raf IC-50; AlphaScreen, 60 min pre-incubation, 3 hours reaction.
b-Raf (V600E), sequence (P15056 whole entry V600E): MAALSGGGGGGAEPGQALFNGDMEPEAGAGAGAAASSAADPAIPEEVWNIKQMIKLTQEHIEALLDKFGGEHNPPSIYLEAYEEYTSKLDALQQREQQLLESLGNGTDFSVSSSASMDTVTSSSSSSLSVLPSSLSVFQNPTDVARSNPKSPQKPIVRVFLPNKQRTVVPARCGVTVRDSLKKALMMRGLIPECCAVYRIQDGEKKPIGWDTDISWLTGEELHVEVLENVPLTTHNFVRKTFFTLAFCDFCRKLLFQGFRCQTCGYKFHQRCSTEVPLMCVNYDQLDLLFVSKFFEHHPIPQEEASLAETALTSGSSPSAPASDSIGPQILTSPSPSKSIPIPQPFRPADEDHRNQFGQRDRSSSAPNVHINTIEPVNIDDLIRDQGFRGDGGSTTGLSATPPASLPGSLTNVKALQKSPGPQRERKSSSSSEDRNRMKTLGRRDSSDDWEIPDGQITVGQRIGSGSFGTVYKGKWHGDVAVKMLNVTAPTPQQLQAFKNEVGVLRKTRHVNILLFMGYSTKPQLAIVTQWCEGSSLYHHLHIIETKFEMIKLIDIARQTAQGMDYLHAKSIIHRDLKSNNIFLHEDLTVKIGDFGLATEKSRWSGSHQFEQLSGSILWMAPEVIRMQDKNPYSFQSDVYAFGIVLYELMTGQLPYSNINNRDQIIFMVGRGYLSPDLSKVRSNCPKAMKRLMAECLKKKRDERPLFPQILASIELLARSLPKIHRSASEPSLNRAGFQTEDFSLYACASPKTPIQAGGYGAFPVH

IC50 [nM] | Structure (SMILES)
3.8 | Cc1ccc(C(=O)Nc2cccc(C(C)C)c2)cc1-c1cc(N2CCOCC2)c(=O)n(C)c1 [Example 436, N-(3-isopropylphenyl)-4-methyl-3-(1-methyl-5-morpholino-6-oxo-1,6-dihydropyridin-3-yl)benzamide]
15.4 | Cc1ccc(C(=O)Nc2cccc(-c3nnco3)c2)cc1-c1cc(N2CCOCC2)c(=O)n(C)c1 [Example 437, N-(3-(1,3,4-oxadiazol-2-yl)phenyl)-4-methyl-3-(1-methyl-5-morpholino-6-oxo-1,6-dihydropyridin-3-yl)benzamide]
6.3 | Cc1ccc(C(=O)Nc2cccc(C(C)(C)O)c2)cc1-c1cc(N2CCOCC2)c(=O)n(C)c1 [Example 439, N-(3-(2-hydroxypropan-2-yl)phenyl)-4-methyl-3-(1-methyl-5-morpholino-6-oxo-1,6-dihydropyridin-3-yl)benzamide]
93.9 | COc1cccc(NC(=O)c2ccc(C)c(-c3cc(N4CCOCC4)c(=O)n(C)c3)c2)c1 [Example 440, N-(3-methoxyphenyl)-4-methyl-3-(1-methyl-5-morpholino-6-oxo-1,6-dihydropyridin-3-yl)benzamide]
33.2 | Cc1ccc(C(=O)Nc2cccc(OC(F)(F)F)c2)cc1-c1cc(N2CCOCC2)c(=O)n(C)c1 [Example 441, 4-methyl-3-(1-methyl-5-morpholino-6-oxo-1,6-dihydropyridin-3-yl)-N-(3-(trifluoromethoxy)phenyl)benzamide]
68.7 | COc1cncc(NC(=O)c2ccc(C)c(-c3cc(N4CCOCC4)c(=O)n(C)c3)c2)c1 [Example 442, N-(5-methoxypyridin-3-yl)-4-methyl-3-(1-methyl-5-morpholino-6-oxo-1,6-dihydropyridin-3-yl)benzamide]
6.2 | Cc1ncc(C(=O)Nc2cccc(C(F)(F)F)c2)cc1-c1cc(N2CCOCC2)c(=O)n(C)c1 [Example 443, 1′,2-dimethyl-5′-morpholino-6′-oxo-N-(3-(trifluoromethyl)phenyl)-1′,6′-dihydro-[3,3′-bipyridine]-5-carboxamide]
44.8 | Cc1ncc(C(=O)Nc2cccc(C(C)(C)C#N)c2)cc1-c1cc(N2CCOCC2)c(=O)n(C)c1 [Example 444, N-(3-(2-cyanopropan-2-yl)phenyl)-1′,2-dimethyl-5′-morpholino-6′-oxo-1′,6′-dihydro-[3,3′-bipyridine]-5-carboxamide]
12 | Cc1ncc(C(=O)Nc2cccc(C(F)F)c2)cc1-c1cc(N2CCOCC2)c(=O)n(C)c1 [Example 445, N-(3-(difluoromethyl)phenyl)-1′,2-dimethyl-5′-morpholino-6′-oxo-1′,6′-dihydro-[3,3′-bipyridine]-5-carboxamide]
100 | Cc1ncc(C(=O)Nc2cccc(C(C)(C)O)c2)cc1-c1cc(N2CCOCC2)c(=O)n(C)c1 [Example 446, N-(3-(2-hydroxypropan-2-yl)phenyl)-1′,2-dimethyl-5′-morpholino-6′-oxo-1′,6′-dihydro-[3,3′-bipyridine]-5-carboxamide]
83.7 | Cc1ccc(NC(=O)c2cccc(C(F)(F)F)c2)cc1-c1cc(N2CCOCC2=O)c(=O)n(C)c1 [Example 451, N-(4-methyl-3-(1-methyl-6-oxo-5-(3-oxomorpholino)-1,6-dihydropyridin-3-yl)phenyl)-3-(trifluoromethyl)benzamide]
4.3 | CCN(C)c1cc(C(=O)Nc2ccc(C)c(-c3cc(N4CCOCC4)c(=O)n(C)c3)c2)ccn1 [Example 453, 2-(ethyl(methyl)amino)-N-(4-methyl-3-(1-methyl-5-morpholino-6-oxo-1,6-dihydropyridin-3-yl)phenyl)isonicotinamide]
1.9 | Cc1ccc(NC(=O)c2ccnc(N3CCC3)c2)cc1-c1cc(N2CCOCC2)c(=O)n(C)c1 [Example 454, 2-(azetidin-1-yl)-N-(4-methyl-3-(1-methyl-5-morpholino-6-oxo-1,6-dihydropyridin-3-yl)phenyl)isonicotinamide]
2.8 | COCCN(C)c1cc(C(=O)Nc2ccc(C)c(-c3cc(N4CCOCC4)c(=O)n(C)c3)c2)ccn1 [Example 455, 2-((2-methoxyethyl)(methyl)amino)-N-(4-methyl-3-(1-methyl-5-morpholino-6-oxo-1,6-dihydropyridin-3-yl)phenyl)isonicotinamide]
3.3 | Cc1ccc(NC(=O)c2ccnc(N(C)CCO)c2)cc1-c1cc(N2CCOCC2)c(=O)n(C)c1 [Example 456]
30.5 | CNCCN(C)c1cc(C(=O)Nc2ccc(C)c(-c3cc(N4CCOCC4)c(=O)n(C)c3)c2)ccn1 [Example 457, 2-(methyl(2-(methylamino)ethyl)amino)-N-(4-methyl-3-(1-methyl-5-morpholino-6-oxo-1,6-dihydropyridin-3-yl)phenyl)isonicotinamide]
4.5 | Cc1ccc(NC(=O)c2cc(CN)cc(C(F)(F)F)c2)cc1-c1cc(N2CCOCC2)c(=O)n(C)c1 [Example 470, 3-(aminomethyl)-N-(4-methyl-3-(1-methyl-5-morpholino-6-oxo-1,6-dihydropyridin-3-yl)phenyl)-5-(trifluoromethyl)benzamide]
2.1 | Cc1ccc(NC(=O)c2ccnc(C(C)(C)C)c2)cc1-c1cc(N2CCOCC2)n(C)c(=O)c1 [Example 472, 2-(tert-butyl)-N-(4-methyl-3-(1-methyl-6-morpholino-2-oxo-1,2-dihydropyridin-4-yl)phenyl)isonicotinamide]
12.1 | Cc1ccc(NC(=O)c2ccccc2)cc1-c1cc(N2CCOCC2)n(C)c(=O)c1 [Example 473, N-(4-methyl-3-(1-methyl-6-morpholino-2-oxo-1,2-dihydropyridin-4-yl)phenyl)benzamide]
2.2 | Cc1ccc(NC(=O)c2ccnc(S(C)(=O)=O)c2)cc1-c1cc(N2CCOCC2)n(C)c(=O)c1 [Example 474, N-(4-methyl-3-(1-methyl-6-morpholino-2-oxo-1,2-dihydropyridin-4-yl)phenyl)-2-(methylsulfonyl)isonicotinamide]
0.8 | CCC(F)(F)c1cc(C(=O)Nc2ccc(C)c(-c3cc(N4CCOCC4)n(C)c(=O)c3)c2)ccn1 [Example 475, 2-(1,1-difluoropropyl)-N-(4-methyl-3-(1-methyl-6-morpholino-2-oxo-1,2-dihydropyridin-4-yl)phenyl)isonicotinamide]
0.6 | CCc1cc(C(=O)Nc2ccc(C)c(-c3cc(N4CCOCC4)n(C)c(=O)c3)c2)ccn1 [Example 476, 2-ethyl-N-(4-methyl-3-(1-methyl-6-morpholino-2-oxo-1,2-dihydropyridin-4-yl)phenyl)isonicotinamide]
0.4 | Cc1ccc(NC(=O)c2ccnc(C3CC3)c2)cc1-c1cc(N2CCOCC2)n(C)c(=O)c1 [Example 477, 2-cyclopropyl-N-(4-methyl-3-(1-methyl-6-morpholino-2-oxo-1,2-dihydropyridin-4-yl)phenyl)isonicotinamide]

Structure (SMILES) | IC50 [nM]
Cc1ccc(NC(=O)c2ccc(C(O)CO)c(C(F)(F)F)c2)cc1-c1cc(N2CCOCC2)c(=O)n(C)c1 (stereo not shown) [Example 460, 4-(1,2-dihydroxyethyl)-N-(4-methyl-3-(1-methyl-5-morpholino-6-oxo-1,6-dihydropyridin-3-yl)phenyl)-3-(trifluoromethyl)benzamide] | 15.9
Cc1ccc(NC(=O)c2cccc(C(F)(F)F)c2)cc1-c1cc(N2CC3CC(C2)O3)c(=O)n(C)c1 [Example 464, N-(3-(5-(6-oxa-3-azabicyclo[3.1.1]heptan-3-yl)-1-methyl-6-oxo-1,6-dihydropyridin-3-yl)-4-methylphenyl)-3-(trifluoromethyl)benzamide] | 16.8
Cc1ccc(NC(=O)c2ccnc(C(C)(C)C#N)c2)cc1-c1cc(N2CC3CC(C2)O3)c(=O)n(C)c1 [Example 465, N-(3-(5-(6-oxa-3-azabicyclo[3.1.1]heptan-3-yl)-1-methyl-6-oxo-1,6-dihydropyridin-3-yl)-4-methylphenyl)-2-(2-cyanopropan-2-yl)isonicotinamide] | 100

Same assay, conditions: read-out: b-Raf IC-50; Table 2; AlphaScreen, 3 hours reaction

IC50 [nM] | Structure (SMILES)
6 | Cn1cc(-c2cc(C(=O)Nc3cccc(C(C)(C)C#N)c3)ccc2Cl)cc(N2CCOCC2)c1=O [Example 427, 4-chloro-N-(3-(2-cyanopropan-2-yl)phenyl)-3-(1-methyl-5-morpholino-6-oxo-1,6-dihydropyridin-3-yl)benzamide]
10.1 | Cc1cn(-c2cc(NC(=O)c3ccc(C)c(-c4cc(N5CCOCC5)c(=O)n(C)c4)c3)cc(C(F)(F)F)c2)cn1 [Example 428, 4-methyl-N-(3-(4-methyl-1H-imidazol-1-yl)-5-(trifluoromethyl)phenyl)-3-(1-methyl-5-morpholino-6-oxo-1,6-dihydropyridin-3-yl)benzamide]
33.7 | Cc1ccc(C(=O)Nc2ccccc2)cc1-c1cc(N2CCOCC2)c(=O)n(C)c1 [Example 429, 4-methyl-3-(1-methyl-5-morpholino-6-oxo-1,6-dihydropyridin-3-yl)-N-phenylbenzamide]
1.6 | Cc1ccc(C(=O)Nc2cccc(C(F)F)c2)cc1-c1cc(N2CCOCC2)c(=O)n(C)c1 [Example 430, N-(3-(difluoromethyl)phenyl)-4-methyl-3-(1-methyl-5-morpholino-6-oxo-1,6-dihydropyridin-3-yl)benzamide]
3.7 | Cc1ccc(C(=O)Nc2cccc(C(C)(C)C#N)c2)cc1-c1cc(N2CCOCC2)c(=O)n(C)c1 [Example 431, N-(3-(2-cyanopropan-2-yl)phenyl)-4-methyl-3-(1-methyl-5-morpholino-6-oxo-1,6-dihydropyridin-3-yl)benzamide]
99 | Cc1ccc(C(=O)Nc2ccccn2)cc1-c1cc(N2CCOCC2)c(=O)n(C)c1 [Example 432, 4-methyl-3-(1-methyl-5-morpholino-6-oxo-1,6-dihydropyridin-3-yl)-N-(pyridin-2-yl)benzamide]
200 | Cc1ccc(C(=O)Nc2cccnc2)cc1-c1cc(N2CCOCC2)c(=O)n(C)c1 [Example 433, 4-methyl-3-(1-methyl-5-morpholino-6-oxo-1,6-dihydropyridin-3-yl)-N-(pyridin-3-yl)benzamide]
2.4 | CCc1cccc(NC(=O)c2ccc(C)c(-c3cc(N4CCOCC4)c(=O)n(C)c3)c2)c1 [Example 435, N-(3-ethylphenyl)-4-methyl-3-(1-methyl-5-morpholino-6-oxo-1,6-dihydropyridin-3-yl)benzamide]
